According to patent US12564605B2, “Plant based compositions and methods for the delivery of magnesium” (Standard Process, Inc., priority 2018, dated 2026):

Tested on: recognition learning and memory retrieval
Assay: Novel Object Recognition (NOR) test
Assay type: in vivo, Sprague Dawley rats
Settings: rats on low Mg diet; in comparison to Magtein and placebo control; FIG. 7
From the text: Male Sprague Dawley rats (150-175 grams on arrival) from Envigo (Indianapolis, IN) were used in the study. Upon receipt, rats were assigned unique identification numbers and were group housed with 2-3 rats per cage in ventilated cages with micro-isolator filter tops. All rats were examined and weighed prior to initiation of the study to assure adequate health and suitability. During the course of the study, 12/12 light/dark cycles will be maintained. The room temperature will be maintained between 20° C. and 23° C. with a relative humidity maintained around 50%.
On the day of arrival to the research facility, animals (except for the normal Mg diet group, N=15) were placed on LabDiet 5008, a diet that is deficient in Mg containing 0.20% magnesium. […]
The Novel Object Recognition (NOR) is a test of recognition learning and memory retrieval, which takes advantage of the spontaneous preference of rodents to investigate a novel object compared to a familiar one. […] All training and testing trials were video-taped and scored by an observer blind to treatments.
On days 1 and 2, rats were allowed to freely explore the arena (no objects inside) for a 5-minute habituation period. […] One hour later, the rats were again placed into the test arena in the presence of one familiar object and one novel object (Object A and Object B), and the time spent exploring both objects is recorded. […]

In the case of O=C([O-])CC(O)(CC(=O)[O-])C(=O)[O-].O=C([O-])CC(O)(CC(=O)[O-])C(=O)[O-].[Mg+2].[Mg+2].[Mg+2] [Mg citrate], the “Cognitive function (Novel Object Recognition test, Recognition Index)” value is reported as “trend toward improvement in cognitive function”.
